Data taken from EP4111863A1, “PHOSPHORUS USE EFFICIENCY ENHANCERS AS PLANT GROWTH PROMOTORS” (EuroChem Antwerpen, priority 2021, dated 2023).

Tested on: SPX1
Experiment: Chemical activity assessment: SPX1 phosphate starvation biomarker, pSPX1::GUS reporter line, GUS stained area
Assay type: in vivo, Arabidopsis thaliana
Conditions: Table 3; 50 µM compound, low phosphate modMS liquid medium, 7 days after germination; low phosphate control average of the same plate
Procedure: All Arabidopsis plant experiments were performed using the Arabidopsis thaliana Columbia-0 background. The Arabidopsis pSPX1::GUS line is described in the […] 2008, 54: 965-975. For rice, the cultivar Nipponbare was used. For maize, the cultivars DKC 2931 and B104 were used for regular pot experiments and sand-based pot experiments, respectively. For soybean, the cultivar Primus was used. […] The medium was solidified due to the addition of 0,6% Gelrite, unless stated otherwise. In case of vertical plates (root length and root hair measurements), the medium was supplied with 0.5% of sucrose and 1 µM (low phosphate, 1 µM KH2PO4, 9.9 mM KCI), 10 µM (low phosphate 10 µM KH2PO4, 9.9 mM KCI) or 1.25 mM KH2PO4 (high phosphate). Arabidopsis seeds were stratified for 2 days at 4 °C before germination. Seedlings were germinated in climate-controlled growth chambers at 22 °C under continuous light (100 µmol m^-2 s^-1). Husked rice seeds were germinated on wetted Whatman paper for 2 days at 37 °C and then transferred to Sterivent boxes or square Petri dishes with solid medium. Maize and soybean seeds were wetted 24 hours at room temperature prior to sowing in pots.
For the chemical activity assessment 3 to 8 seeds per well of Arabidopsis pSPX1::GUS line were sown in 96-well plates containing 150 µl of low phosphate modMS liquid medium containing 1% of sucrose. Compounds were added in 50 µM concentration, starting from a 5 mM stock of compounds solved in DMSO. Different chemical substances were separately added to different wells. Per plate, 16 control wells were used, 8 containing only the low phosphate medium and 1% DMSO, and 8 containing high phosphate medium and 1% DMSO. 7 days after germination, plates were scanned using a flatbed scanner (EPSON Expression 11000XL) and analyzed for leaf size. After scanning, the growth medium was replaced by GUS staining solution (see Plant Mol. Biol. Rep. 1994, 12: 37-42 for details) and incubated for 1.5 hours at 37 °C. The plates were scanned a second time and analyzed for GUS signal area. Measurements of both leaf area and GUS signal area were conducted by filtering out and measure the green and blue signal, respectively using ImageJ software. If the green leaf area was 50% or less than the control, samples were omitted. Additionally, all results were visually screened for leaf size and GUS signal.

In the case of O=S(=O)(CCN1CCOC2CCCCC21)c1cc(Cl)ccc1Cl (stereo not drawn), the “GUS (SPX1) stained area normalized to the number of seeds (pixels)” value (from here on “GUS (SPX1) stained area normalized”) was 9 pixels.

For c1ccc2sc(SN3CCOCC3)nc2c1, the “GUS (SPX1) stained area normalized” value was 1 pixels.

For Cc1ccc2cccc(OC(=O)N3CCOCC3)c2n1, the “GUS (SPX1) stained area normalized” value was 21 pixels.

For Brc1ccc(CN2CCOC(Cn3cccn3)C2)s1 (stereo not drawn), the “GUS (SPX1) stained area normalized” value was 10 pixels.

CC1CN(C(=O)Nc2cc(C(C)C)on2)CC(c2ccsc2)O1 (stereo not drawn) was tested, and the “GUS (SPX1) stained area normalized” value was 23 pixels.

For CCC1COCCN1C(=O)Nc1nnc(C(F)(F)F)s1 (stereo not drawn), the “GUS (SPX1) stained area normalized” value was 21 pixels.

Cc1nc(Cl)cc(N2CCOCC2c2c(C)nn(C)c2C)n1 (stereo not drawn) was tested, and the “GUS (SPX1) stained area normalized” value was 35 pixels.

For CC1CN(Cc2csc(NC(=O)c3ccco3)n2)CC(C)O1 (stereo not drawn), the “GUS (SPX1) stained area normalized” value was 2 pixels.

In the case of CC1(C)COCCN1C(=O)c1cnc(-c2cccs2)s1, the “GUS (SPX1) stained area normalized” value was 45 pixels.

For Cc1cc(C)n(CC2CN(CC(=O)N(C)c3nccs3)CCO2)n1 (stereo not drawn), the “GUS (SPX1) stained area normalized” value was 15 pixels.

With Cc1ccc(C2CN(Cc3cc(-c4ccco4)on3)CCO2)c(C)c1 (stereo not drawn) the “GUS (SPX1) stained area normalized” value was 15 pixels.

For CCc1nnc(NC(=O)N2CCOCC2CC(C)C)s1 (stereo not drawn), the “GUS (SPX1) stained area normalized” value was 16 pixels.

For O=C(C1CN(C(=O)C(c2ccccc2)c2ccccc2)c2ccccc2O1)N1CCOCC1 (stereo not drawn), the “GUS (SPX1) stained area normalized” value was 30 pixels.

COc1cccc(-c2nnn(-c3nc(CN4CCOCC4)nc4sc5c(c34)CCCC5)n2)c1 was tested, and the “GUS (SPX1) stained area normalized” value was 20 pixels.

With O=C(NC1COc2ccccc21)N1CCOC(c2ccc(Cl)cc2)C1 (stereo not drawn) the “GUS (SPX1) stained area normalized” value was 8 pixels.

For CC1CN(C(C)(C)CNC(=O)C2CCCN2C2CCN(CC(F)(F)F)CC2)CC(C)O1 (stereo not drawn), the “GUS (SPX1) stained area normalized” value was 7 pixels.

Fc1ccc(-c2nnc(SCc3ccc4ccccc4n3)n2CCN2CCOCC2)cc1 was tested, and the “GUS (SPX1) stained area normalized” value was 22 pixels.

For C#CCNC(=O)CN1CCOC(CC)C1 (stereo not drawn), the “GUS (SPX1) stained area normalized” value was 66 pixels.

With CC1CN(S(=O)(=O)CCNc2nc(-c3ccncc3)nc3ccccc23)CC(C)O1 (stereo not drawn) the “GUS (SPX1) stained area normalized” value was 1 pixels.

For CC(NC(=O)N1CCOC(CO)C1)c1ccc(Br)cc1 (stereo not drawn), the “GUS (SPX1) stained area normalized” value was 129 pixels.

Cc1cc(I)ccc1NC(=O)CN1CCOC(C)C1 (stereo not drawn) was tested, and the “GUS (SPX1) stained area normalized” value was 17 pixels.

COc1cc(C(C)=O)ccc1OC(=O)N1CCOCC1 was tested, and the “GUS (SPX1) stained area normalized” value was 8 pixels.

CCc1cc(N2CC(C)OCC2c2ccccc2)nc(-c2ccccn2)n1 (stereo not drawn) was tested, and the “GUS (SPX1) stained area normalized” value was 5 pixels.

CC1(C)C(NC(=O)Nc2cc(Cl)ccc2N2CCOCC2)C2CCOC21 (stereo not drawn) was tested, and the “GUS (SPX1) stained area normalized” value was 28 pixels.

COCCn1c(SCC(=O)N2CCOCC2)nnc1-c1ccncc1 was tested, and the “GUS (SPX1) stained area normalized” value was 9 pixels.

For CCc1cc2c(=O)n(CC(=O)N3CCOC(C)C3)cnc2s1 (stereo not drawn), the “GUS (SPX1) stained area normalized” value was 0 pixels.

In the case of Cc1ccc(S(=O)(=O)N2CCN(S(=O)(=O)N3CCOCC3)CC2)cc1, the “GUS (SPX1) stained area normalized” value was 10 pixels.

Cc1nnc(NC(=O)N2CC(C)OC(c3ccsc3)C2)s1 (stereo not drawn) was tested, and the “GUS (SPX1) stained area normalized” value was 20 pixels.

For Cc1cnn(CC2CN(C(C)C(=O)Nc3cc(C)no3)CCO2)c1 (stereo not drawn), the “GUS (SPX1) stained area normalized” value was 7 pixels.

For CC1CN(C(=O)CCc2nc(-c3ccsc3)no2)C(C)CO1 (stereo not drawn), the “GUS (SPX1) stained area normalized” value was 1 pixels.

CCC1CN(C(=O)c2[nH]nc(C)c2Br)CCO1 (stereo not drawn) was tested, and the “GUS (SPX1) stained area normalized” value was 0 pixels.

For O=C(c1csc(-c2cccs2)n1)N1CCOC2CCCCC21 (stereo not drawn), the “GUS (SPX1) stained area normalized” value was 2 pixels.

For O=S(=O)(c1ccc(Sc2nnc(-c3ccccc3)c3ccccc23)nc1)N1CCOCC1, the “GUS (SPX1) stained area normalized” value was 31 pixels.

CN1CCOC2CN(Cc3cc(O)ccc3Br)CC21 (stereo not drawn) was tested, and the “GUS (SPX1) stained area normalized” value was 12 pixels.

In the case of CC(C)(C)Nc1nn(CN2CCOCC2)c(=S)s1, the “GUS (SPX1) stained area normalized” value was 7 pixels.

c1cc2c(cc1C1CCCN1c1nc(CN3CCOCC3)nc3sc4c(c13)CCC4)OCCO2 (stereo not drawn) was tested, and the “GUS (SPX1) stained area normalized” value was 1 pixels.

For O=C(Nc1cccc(NC(=O)N2CCOC3(CCC3)C2)c1)C1CC1, the “GUS (SPX1) stained area normalized” value was 11 pixels.

CC1CN(C(=O)Cn2nc(-c3cccs3)oc2=O)CCO1 (stereo not drawn) was tested, and the “GUS (SPX1) stained area normalized” value was 0 pixels.

O=C(Nc1sc2c(c1C(=O)N1CCOCC1)CCCC2)C1CCCc2ccccc21 (stereo not drawn) was tested, and the “GUS (SPX1) stained area normalized” value was 8 pixels.

With Cc1cccc(N2CCOC3(CCCC3)C2)n1 the “GUS (SPX1) stained area normalized” value was 25 pixels.

For CSc1nnc(CN2CC(c3ccccc3)OCC2(C)C)s1 (stereo not drawn), the “GUS (SPX1) stained area normalized” value was 43 pixels.

O=C(C1=C(O)C(=O)N(CCN2CCOCC2)C1c1ccccc1)c1cccs1 (stereo not drawn) was tested, and the “GUS (SPX1) stained area normalized” value was 5 pixels.

With Cc1ccc(C(C)C)c(OCCNCCN2CCOCC2)c1 the “GUS (SPX1) stained area normalized” value was 40 pixels.

C[C@@H](CO)NS(=O)(=O)c1ccc(S(=O)(=O)N2CCOCC2)cc1 was tested, and the “GUS (SPX1) stained area normalized” value was 1 pixels.

With CC1CN(c2ccc([N+](=O)[O-])nc2)CC(c2ccsc2)O1 (stereo not drawn) the “GUS (SPX1) stained area normalized” value was 55 pixels.

For O=C(NCc1ccccc1CS(=O)(=O)N1CCOCC1)c1ccc([N+](=O)[O-])cc1, the “GUS (SPX1) stained area normalized” value was 7 pixels.

With CC1CN(C(=O)c2cnn(C)c2C(F)(F)F)CC(C)O1 (stereo not drawn) the “GUS (SPX1) stained area normalized” value was 19 pixels.

In the case of CC(C)CCNC(=O)c1cc(S(=O)(=O)N2CCOCC2)cn1C, the “GUS (SPX1) stained area normalized” value was 1 pixels.

In the case of CCCc1csc(NC(=O)N2CCOC3(CCC3)C2)n1, the “GUS (SPX1) stained area normalized” value was 49 pixels.

For c1ccc2nc(N3CCOCC3)cnc2c1, the “GUS (SPX1) stained area normalized” value was 43 pixels.

In the case of O=C(C1CN(C(=O)CSc2nc3ccccc3o2)c2ccccc2O1)N1CCOCC1 (stereo not drawn), the “GUS (SPX1) stained area normalized” value was 34 pixels.

With CC(=O)Nc1ccc(Sc2cc(C(=O)N3CCOCC3)c3ccccc3n2)cc1 the “GUS (SPX1) stained area normalized” value was 18 pixels.

For CC(C)C(NC(=O)C12CC3CC(CC(C3)C1)C2)C(=O)N1CCOCC1 (stereo not drawn), the “GUS (SPX1) stained area normalized” value was 14 pixels.

In the case of COc1ccc(-c2nnc(SCC(=O)N3CCOCC3)o2)cc1OC, the “GUS (SPX1) stained area normalized” value was 32 pixels.

In the case of CC1(C)CN(Cc2ccc(-n3ccnc3)cc2)CCO1, the “GUS (SPX1) stained area normalized” value was 16 pixels.

O=S(=O)(N1CCOCC1)N1CCN(Cc2noc(-c3ccc(F)cc3)n2)CC1 was tested, and the “GUS (SPX1) stained area normalized” value was 19 pixels.

With Cc1nc(C(C)(C)NCC(=O)N2CC(C)OC(C)C2)sc1C (stereo not drawn) the “GUS (SPX1) stained area normalized” value was 34 pixels.

CC(c1nc(C(C)(C)C)no1)N1CCOC(c2ccccc2)C1 (stereo not drawn) was tested, and the “GUS (SPX1) stained area normalized” value was 9 pixels.

O=C(Nc1ccc(F)cn1)N1CCOC(c2nccs2)C1 (stereo not drawn) was tested, and the “GUS (SPX1) stained area normalized” value was 24 pixels.

For Cc1nn(C)c(C)c1C1CCCN1CC(O)CN1CCOCC1 (stereo not drawn), the “GUS (SPX1) stained area normalized” value was 37 pixels.

With CCC(CC)C(CNC(=O)c1cc(C)nc2onc(C)c12)N1CCOCC1 (stereo not drawn) the “GUS (SPX1) stained area normalized” value was 7 pixels.

In the case of O=C(c1ccc(-c2cc(Cl)ccc2Cl)o1)N1CCOCC1, the “GUS (SPX1) stained area normalized” value was 16 pixels.

With CC(C)(C)CC(C)(C)NCc1cnc(N2CCOCC2)nc1 the “GUS (SPX1) stained area normalized” value was 5 pixels.
